The source of these data is ChEMBL document CHEMBL3507680, “University of Dundee, Gates Library screen for HepG2 cell viability”.

The data set can be described thus: Human HepG2 cell viability assay in 384 well format. More on the design: dose 125 nL, time 70.5 hour; cytotoxicity at 70.5 h: concentration not given beside the values. The conditions noted are these: HepG2 cells, read-out: Inhibition. The data set is classed as toxicity, cell-based.

`Cc1nccn1-c1cncc(C2CCCN2Cc2ccccc2)n1` (stereo unspecified): the cytotoxicity at 70.5 h was 14.2%.
In the case of `O=C(c1ccccc1Cl)N1CC[C@H](O)[C@@H](N2CCOCC2)CC1` it was -4.63%.
For `Cc1ncc(CN2CC[C@@](C)(O)[C@H](Oc3cccc(F)c3)C2)cn1` the value was 14.8%; for `O=C(c1ccc2c(c1)CCC2)N1CC[C@H](O)[C@]2(CCCO2)C1`, -0.381%; for `C[C@]1(O)CCN(Cc2nccs2)C[C@@H]1Oc1cccc(F)c1`, -3.49%.
For `CO[C@H]1CN(C(=O)c2ccc3oc(C)cc3c2)C[C@@]12CCCO2` the value was -3.4%.
In the case of `C[C@@]1(O)CCN(Cc2cc[nH]n2)C[C@H]1Oc1cccc(F)c1`, the cytotoxicity at 70.5 h was -2.59%.
In the case of `C[C@]1(O)CN(Cc2ncc[nH]2)CC[C@@H]1Oc1cccc(F)c1`, the cytotoxicity at 70.5 h was -1.65%.
In the case of `C[C@]1(O)CN(Cc2cscn2)CC[C@@H]1Oc1cccc(F)c1` it was -3.07%.
In the case of `Cn1ccnc1CN1CCC(Cc2ccccn2)CC1` it was 17.2%; in that of `Nc1ncnc2c1ncn2[C@H]1CCN(Cc2ccsc2)CC[C@@H]1O`, -6.05%; in that of `COCC(=O)N1CCCC1c1nccnc1Nc1nc(C)cs1` (stereo unspecified), -7.14%.
In the case of `O=C(CCn1ncc2ccccc21)N1CCCC(Cc2cccnc2)C1` (stereo unspecified) it was -5.11%.
`CC(C)(N)C(=O)N1CCC(c2nccnc2Oc2cccc(F)c2)CC1`: the cytotoxicity at 70.5 h is -10.4%.
For `CC(C)(N)C(=O)N1CCC(c2nccnc2Oc2ccccc2F)CC1` the value was 7.72%; for `Cc1cccc(Oc2nccnc2C2CCN(C(=O)C(C)(C)N)CC2)c1`, -4.07%; for `Cc1noc(C)c1C(=O)N1CCC(c2[nH]ncc2S(C)(=O)=O)C1` (stereo unspecified), -1.52%.
In the case of `CCn1cc(C(=O)N2CCCC(c3nccs3)C2)cn1` (stereo unspecified), the cytotoxicity at 70.5 h is -2.34%.
Consider `CNc1cncc(C2CCCN2C(=O)c2ccc3c(c2)OCCO3)n1` (stereo unspecified), for which the cytotoxicity at 70.5 h turned out to be 20.5%.
For `COCCC(=O)N1CCCC1c1nccnc1Nc1ncccn1` (stereo unspecified) the value was 16.8%; for `CCc1cc(C(=O)N2CCCC(Cc3ccc(NC)nn3)C2)on1` (stereo unspecified), 50.7%; for `CCCC1c2cccn2CCN1C(=O)c1cc(CC)no1` (stereo unspecified), -2.22%.
For `Cc1csc2c(=O)n3c(nc12)CCN(C(=O)c1ccnn1C)CC3` the value was -6.6%; for `Cc1csc2c(=O)n3c(nc12)CCN(C(=O)c1ccccn1)CC3`, -0.0193%; for `c1coc(-c2[nH]c3ncccc3c2CN2CCCOCC2)c1`, -4.25%.
As to `CN1CCN(Cc2c(-c3ccco3)[nH]c3ncccc23)CC1`, the cytotoxicity at 70.5 h is -6.17%.
Take `COc1cc2nc3n(c(=O)c2cc1OC)CCN(C(=O)C1CCC1)CC3`: the cytotoxicity at 70.5 h was -4.59%.
With `CCCn1cc(C(=O)N2CCOC(c3nc(-c4cccs4)no3)C2)cn1` (stereo unspecified), the cytotoxicity at 70.5 h was -4.18%.
For `O=C(N[C@@H]1CN(Cc2ccc3[nH]ccc3c2)C[C@H]1O)c1cscn1` the value was 19.9%; for `O=C(N[C@@H]1CN(Cc2ccc(F)cc2)C[C@H]1O)c1cscn1`, -1.52%; for `Cc1cccnc1CN1CCCCC1c1ccn2ccnc2n1` (stereo unspecified), -4.81%.
In the case of `CNc1ncccc1CN1CCCCC1c1cc(C)n2ccnc2n1` (stereo unspecified) it was -5.95%.
In the case of `Cc1cc2cc(C(=O)N[C@@H]3CC[C@@H](N4CCCC4)[C@@H]3O)ccc2o1` it was -5.68%; in that of `CCc1nccn1-c1cncc(C2CCCN2Cc2ccccc2)n1` (stereo unspecified), -5.36%.
For `CNc1nc(C2CCCCN2C(=O)COC)nc2c1CN(C)CC2` (stereo unspecified), the cytotoxicity at 70.5 h was -9.52%.
For `CNc1nc(C2CCCCN2C(=O)C(C)(C)OC)nc2c1CN(C)CC2` (stereo unspecified) the value was -7.36%; for `Cn1cc(C(=O)N2CCCC(Cc3cccc4ncccc34)C2)cn1` (stereo unspecified), -3.73%; for `Cc1cncc(C2CCCN(CC3CCC3)C2)n1` (stereo unspecified), -4.65%.
In the case of `CCc1nccn1-c1cncc(C2CCCN2CC(=O)N2CCCC2)n1` (stereo unspecified) it was -3.79%.
In the case of `CCCn1cc(CN2CCC(c3[nH]ncc3S(C)(=O)=O)C2)cn1` (stereo unspecified) it was -7.48%; in that of `Cc1ccc(-c2cc(CS(=O)(=O)NC3CCCNC3=O)on2)cc1` (stereo unspecified), 0.495%.
For `Cc1cc(CC(C)NC(=O)c2n[nH]c3c2CCC3)n[nH]1` (stereo unspecified), the cytotoxicity at 70.5 h was determined as 3.59%.
For `Cc1cc(NC(=O)NCCO)nn1-c1ccc(Cl)cc1Cl` the value was 0.498%.
For `Cc1cc(NC(=O)CO)nn1-c1ccc(Cl)cc1Cl` the value was 4.81%.
For `COCCN(CCOC)C(=O)c1cnn(C)c1-n1c(C)ccc1C` the value was 1.05%; for `CCCN(CCC)C(=O)c1cnn(C)c1C`, 9.54%; for `Cc1cc(C)cc(OCCN(C)C2CCOC2=O)c1` (stereo unspecified), 1.42%.
Take `CN(CCOc1ccccc1F)C1CCOC1=O` (stereo unspecified): the cytotoxicity at 70.5 h is -1.46%.
In the case of `COc1ccccc1NC(=O)CCNC(=O)c1ccoc1` it was 0.887%.
For the molecule `CS(=O)(=O)c1ccc(Cl)c(C(=O)NCCC2=CCCCC2)c1`, the cytotoxicity at 70.5 h was 32.9%.
For `CCOC(=O)c1ccc(S(=O)(=O)NCC(CC)N2CCCC2)cc1` (stereo unspecified) the value was -5.87%; for `COCc1ccccc1NC(=O)c1ccoc1`, -15%.
In the case of `CC(C)CN(CC(F)(F)F)S(=O)(=O)c1cc(C(N)=O)n(C)c1` it was 1.58%; in that of `CC(C)C1CCCN1C(=O)Nc1ccc(=O)n(C)c1` (stereo unspecified), 15%; in that of `CC(=O)NCCNC(=O)NCc1ccc(-n2ccc(C(F)(F)F)n2)cc1`, -6.79%.
In the case of `COc1ccc(NCCC(=O)NCc2cccnc2N(C)C)cc1` it was -8.23%; in that of `Cn1cc(NC(=O)N2CCCC2c2ccccn2)ccc1=O` (stereo unspecified), -5.4%.
For `c1ccc2c(NC3CCc4ncnn4C3)ncnc2c1` (stereo unspecified), the cytotoxicity at 70.5 h is -4.29%.
For `CCNC(=O)NCc1ccc(-n2ccc(C(F)(F)F)n2)cc1`, the cytotoxicity at 70.5 h is -3.86%.
Regarding `Cc1nc2n(n1)CC(Nc1nc(C(F)(F)F)nc3ccccc13)CC2` (stereo unspecified), the cytotoxicity at 70.5 h is -1.15%.
Consider `Cc1cnn(C2CN(Cc3nc4cc(Cl)ccc4n3C)C2)c1`, for which the cytotoxicity at 70.5 h turned out to be 7.22%.
In the case of `COC(=O)c1occc1Cn1cc(Br)cn1` it was -2.08%.
For `Cn1cc(CCCN2CCCC(c3cc(C(F)(F)F)[nH]n3)C2)cn1` (stereo unspecified) the value was 6.94%; for `Cc1nc(S(=O)(=O)N2CCCCc3ccccc32)cn1C`, 9.73%.
In the case of `OCCC1CCN(c2ccnc3ccsc23)C1` (stereo unspecified), the cytotoxicity at 70.5 h was -3.95%.
Regarding `COCCNS(=O)(=O)c1c(C)sc2ccccc12`, the cytotoxicity at 70.5 h is -4.03%.
For the molecule `CCOC(=O)C1(NCC(=O)Nc2cc(C)ccc2OC)CCCC1`, the cytotoxicity at 70.5 h was 21.1%.
In the case of `Cn1cc(CC(=O)N2CCCC(c3ccn[nH]3)C2)cn1` (stereo unspecified) it was -1.63%; in that of `COCCN(Cc1ccccn1)C(=O)Nc1cccnc1-n1cccn1`, 18.4%.
For `CCN(Cc1ccco1)C(=O)NCC(C)N1CCc2sccc2C1` (stereo unspecified) the value was 13.6%; for `Cc1ccc(-c2noc(CCC(=O)NC(C)Cn3cccn3)n2)cc1` (stereo unspecified), -7.96%; for `Cc1cccc2c1OCCC2NCc1c(C(C)C)nn(C)c1N(C)C` (stereo unspecified), -10.6%.
`CCS(=O)(=O)CC(=O)NC(C)c1ccc(OCCC(C)C)cc1` (stereo unspecified): the cytotoxicity at 70.5 h was -1.31%.
Take `O=C(CCn1cnc2cc(F)c(F)cc21)N1CCN2CCCCC2C1` (stereo unspecified): the cytotoxicity at 70.5 h is -1.04%.
For `CCCNc1nnc(S(=O)(=O)CCOCC)s1` the value was -0.768%; for `CC(NC(=O)CSCC(N)=O)c1ccc(Oc2ccccc2)cc1` (stereo unspecified), -8.85%; for `O=C(NCCO)Nc1ccc(Cl)cc1-n1cccc1`, 0.77%.
In the case of `CN(CC(=O)NC(N)=O)CC1(c2ccc(Br)cc2)CC1` it was -1.35%; in that of `Cc1nc(COc2ccc(OC3CCCCNC3=O)cc2)oc1C` (stereo unspecified), 1.82%; in that of `Cc1cc(COc2ccc(OC3CCCCNC3=O)cc2)on1` (stereo unspecified), -3.96%.
For `CN(CC(N)=O)CC1(c2ccc(Br)cc2)CC1` the value was -5.53%; for `CN1CCC(NC(=O)Nc2cnn(-c3ccccc3Cl)c2)C1=O` (stereo unspecified), -7.73%; for `CC(C)OCCC(=O)NCC(O)c1c(Cl)cccc1Cl` (stereo unspecified), -3.94%.
Turning to `Cc1ccc(S(=O)(=O)N2CCOCC2C(N)=O)c(F)c1` (stereo unspecified), the cytotoxicity at 70.5 h is -8.93%.
For `COc1cccc(-c2n[nH]cc2CNC2CCCN(C)C2)c1` (stereo unspecified) the value was -5.83%.
In the case of `CC(C)OCc1ccccc1CNC(=O)C(C)S(=O)(=O)C(C)C` (stereo unspecified) it was -5.26%; in that of `COC(=O)c1ccc(NC(C)c2ccc3c(c2)NC(=O)CO3)nn1` (stereo unspecified), -1.28%; in that of `CC(C)c1noc(CCNC(=O)NCC2Cc3ccccc3O2)n1` (stereo unspecified), -13.5%.
For `CCOc1ccc(SCCS(=O)(=O)CC)cc1` the value was -6.32%; for `COC(=O)c1ccc(Cl)c(NS(=O)(=O)c2cnn(C)c2)c1`, 10.2%; for `Cc1[nH]ccc1C(=O)NCC1CC(=O)N(CCc2ccccc2)C1` (stereo unspecified), -3.09%.
As to `CC(C)N(C)S(=O)(=O)N(C)Cc1cnn(C)c1`, the cytotoxicity at 70.5 h was -3.87%.
For `CN(C)c1cccc(C(=O)N2CCCC2c2ncc3c(n2)CCNC3)c1` (stereo unspecified) the value was -2.08%.
For `COc1ncc(C2(O)CCN(Cc3cccc(F)c3F)CC2)c(OC)n1` the value was -3.22%; for `Cc1nc(C)c(C(=O)N2CCc3nc4c(C)csc4c(=O)n3CC2)s1`, 0.911%.
For the molecule `Cc1ccc(-c2ccc(C3CNCCO3)nc2)cc1` (stereo unspecified), the cytotoxicity at 70.5 h is -2.39%.
In the case of `CC(C)c1nn(C)c(N(C)C)c1CNC1CCc2cc(F)ccc21` (stereo unspecified) it was 5.83%; in that of `COc1cccc(-c2n[nH]cc2CNC2CCN(C3CC3)CC2)c1`, 29.3%; in that of `Cc1cc(C[C@@H]2CCC[C@H]2NCc2ccccc2C)on1`, -1.32%.
For `Cc1cc(C[C@@H]2CCC[C@H]2NCc2ccc(C(F)(F)F)cc2)on1` the value was -2%; for `CC1(C)CC(N(Cc2cccnc2)Cc2cccnc2)CC(C)(C)N1`, -1.63%.
